Legend:
[1] = tested on: broadly tuned (B) glomerulus of the antennal lobe; assay: Two-photon calcium imaging of odour-evoked activity in the broadly tuned (B) glomerulus; format: in vivo, Aedes aegypti
From the text: (§1) We designed a two-photon microscope that incorporates both resonant scanning^69 and remote focusing^70,71 to achieve rapid, volumetric, in vivo neural imaging. Remote focusing allows rapid switching of the imaging plane by moving a small, lightweight mirror located upstream in the imaging path. […] In diagnostic tests, transition times for switching between two planes were less than 6 ms.
(§2) We custom-designed a mosquito holder with a 3D-printed plastic frame and thin stainless-steel plate (FIG. 2C, thickness 0.001 inch). A tiny mosquito-head-sized hole was photo-chemically etched on the plate (ETCHIT Company). To prepare for imaging, we anaesthetized a female on ice for ˜1 min, pushed the anterodorsal side of her head into the hole, and fixed it with UV glue (RapidFix 6121830ES). The antennae, maxillary palps, and proboscis remained below the metal plate and contacted neither the plate nor the glue. We added room-temperature saline (103 mM NaCl, 3 mM KCl, 5 mM TES, 26 mM NaHCO3, 1 mM NaH2PO4, 1.5 mM CaCl2), 4 mM MgCl2, 10 mM Trehalose, 10 mM Glucose; pH 7.1) to the holder and used sharp forceps to remove a section of the head capsule (including both cuticle and the edge of the eyes) from the part of the head protruding through the metal plate. During imaging, we continuously perfused saline bubbled with carbogen (5% CO2, 95% O2) through the holder and across the open head capsule at 125 ml/hour.
We used the ScanImage^72 package in Matlab to control the microscope and acquire images. For each individual, we chose either the right or left antennal lobe (AL) and recorded movies of odour-evoked activity (starting 7-30 sec before and continuing 20-60 sec after synthetic-odorant puffs; ˜30 sec before, ˜140 sec after puffs of complex extract). The movies covered the entire AL in Z-stacks that were 4 μm apart at 128×128 pixel resolution (22 stacks total, green channel only for the orco-T2A-QF2-QUAS-GCaMP 6f strain; 28 stacks, green and red channels for the brp>jGCaMP7s strain). […] Laser power as measured at the sample plane was 10 mW. […]

[2] = tested on: human-sensitive (H) glomerulus of the antennal lobe; assay: Two-photon calcium imaging of odour-evoked activity in the human-sensitive (H) glomerulus; format: in vivo, Aedes aegypti; conditions: for response of H glomerulus: panel of 50 single odorants at approximately the same vapour-phase concentration (that of sulcatone in 1× human odour)
From the text: as §1, §2
(§3) We used the ScanImage^72 package in Matlab to control the microscope and acquire images. For each individual, we chose either the right or left antennal lobe (AL) and recorded movies of odour-evoked activity (starting 7-30 sec before and continuing 20-60 sec after synthetic-odorant puffs; ˜30 sec before, ˜140 sec after puffs of complex extract). The movies covered the entire AL in Z-stacks that were 4 μm apart at 128×128 pixel resolution (22 stacks total, green channel only for the orco-T2A-QF2-QUAS-GCaMP 6f strain; 28 stacks, green and red channels for the brp>jGCaMP7s strain). The resulting voxel size was approximately 0.9×0.8×4 μm^3, and the volumetric imaging rate was 3.76 Hz for the orco-T2A-QF2-QUAS-GCaMP 6f strain and 2.95 Hz for the brp>jGCaMP7s strain. We increased the laser power exponentially with depth (ranging from 7.5 to 10 mW) to account for light decay and scattering in deeper tissues. Laser power as measured at the sample plane was 10 mW. After recording odour-evoked activity, we acquired 30-40 high-resolution structural volumes at high laser power to aid registration and downstream analysis. For this, we imaged the AL in 120-180 z-stacks, 1 μm apart, at 256×256 pixel resolution.
The three target glomeruli could be reliably identified across brains based on position and responses to key reference odorants. Human-sensitive glomerulus H was located in the anterior AL, adjacent to a landmark non-Orco glomerulus in our two-photon images (unlabeled area surrounded by Orco+ glomeruli; FIGS. 8A-B), and responded to 10^−2 heptanal. Animal-sensitive glomerulus A was located in the dorsal AL and responded to 10^−2 phenol. Broadly tuned glomerulus B was located in the posterior-medial AL and responded to 10^−2 benzaldehyde. Glomeruli H, A, and B tentatively correspond to V3, MD2, and PD1, respectively, in a previously published atlas^35, but we cannot be sure without molecular markers.
We used area under df/f curves as a metric for neural activity. For single-odorant stimuli, which evoked single df/f peaks, we defined the peak boundaries by first locating the max (for activation) or min (for inhibition) points in the df/f curve and then extending from the max/min point until df/f dropped to background levels. For natural odour extracts, which sometimes evoked multiple peaks, we integrated df/f values from desorption of the focusing trap to the end of neural recording (0 to 140 sec). […]

[3] = tested on: animal-sensitive (A) glomerulus of the antennal lobe; assay: Two-photon calcium imaging of odour-evoked activity in the animal-sensitive (A) glomerulus; format: in vivo, Aedes aegypti; conditions: for activation of A glomerulus: panel of 50 single odorants at approximately the same vapour-phase concentration
From the text: We designed a two-photon microscope that incorporates both resonant scanning^69 and remote focusing^70,71 to achieve rapid, volumetric, in vivo neural imaging. Remote focusing allows rapid switching of the imaging plane by moving a small, lightweight mirror located upstream in the imaging path.
as §2, §3
We used area under df/f curves as a metric for neural activity. For single-odorant stimuli, which evoked single df/f peaks, we defined the peak boundaries by first locating the max (for activation) or min (for inhibition) points in the df/f curve and then extending from the max/min point until df/f dropped to background levels. For natural odour extracts, which sometimes evoked multiple peaks, we integrated df/f values from desorption of the focusing trap to the end of neural recording (0 to 140 sec).

[4] = tested on: Orco+ glomeruli of the antennal lobe; assay: Two-photon calcium imaging of odour-evoked activity across Orco+ glomeruli; format: in vivo, Aedes aegypti
From the text: as §1
We custom-designed a mosquito holder with a 3D-printed plastic frame and thin stainless-steel plate (FIG. 2C, thickness 0.001 inch). A tiny mosquito-head-sized hole was photo-chemically etched on the plate (ETCHIT Company). To prepare for imaging, we anaesthetized a female on ice for ˜1 min, pushed the anterodorsal side of her head into the hole, and fixed it with UV glue (RapidFix 6121830ES). The antennae, maxillary palps, and proboscis remained below the metal plate and contacted neither the plate nor the glue. […]
We used the ScanImage^72 package in Matlab to control the microscope and acquire images. For each individual, we chose either the right or left antennal lobe (AL) and recorded movies of odour-evoked activity (starting 7-30 sec before and continuing 20-60 sec after synthetic-odorant puffs; ˜30 sec before, ˜140 sec after puffs of complex extract). […] Laser power as measured at the sample plane was 10 mW. […]

[5] = tested on: female Aedes aegypti mosquitoes; assay: Two-port olfactometer host-preference assay; format: in vivo; conditions: in the absence of human or animal odour
Method: We tested the host preference of mated, non-blood-fed, 7-14 day old females that had been housed overnight with access to water only (no sucrose). We used a two-port olfactometer for choice and no-choice tests involving live hosts (FIGS. 1A and C) or sleeves/hair (FIGS. 1B and D) as previously described3. We first acclimated 75-100 female mosquitoes in the olfactometer for 5 min, then opened a sliding door and activated a fan to pull air through the two host chambers and expose mosquitoes to host odour. Mosquitoes were able to fly upwind, sample the host-odour streams, and choose to enter either host port. After 6 min, we counted the number of mosquitoes trapped in each host port. For two-choice trials with live hosts, one chamber contained a human hand and arm up to the elbow (belonging to one of six 22-43 year old individuals: 3 female, 3 male; 3 Caucasian, 2 East Asian, 1 South Asian). The human exhaled gently near the opening of the chamber once every 30 sec to provide a source of breath. The other chamber contained a guinea pig (Cavia porcellus; one of two 4-5 year old pigmented females), rat (Rattus norvegicus domesticus; one of two 2-6 month old Sprague-Dawley males), or button quail (Coturnix coturnix; one 2-3 year old female). […]

[6] = concentrations calibrated to about ⅕th of activity evoked by 1× human odour, paraffin oil
[7] = synthetic odorants singly or as combo, vapour-phase concentrations characteristic of 1× human odour, 3-sec puffs

## CCCCCCO [1-hexanol]
[1]; [6]
  activity evoked in B glomerulus: evoked activity in their cognate glomeruli

## CCCCCCCCCC=O [Decanal]
[2]; [6]
  activity evoked in H glomerulus: evoked activity in their cognate glomeruli
[2]; [7]
  activity evoked in H glomerulus: strong and prolonged activity

## CC(=O)C(C)O (stereo not shown) [acetoin]
[3]
  activation of A glomerulus: strongly activated
[3]; physiological concentrations (as in 1× human odour)
  activity evoked in A glomerulus: too low to evoke consistent activity
[1]; synthetic odorants singly or as combo, vapour-phase concentrations characteristic of 1× human odour
  activation of B glomerulus: strongly activated

## O=Cc1ccccc1 [benzaldehyde]
[1]; 10^−2 dilution
  response of B glomerulus to reference odorant: responded

## CS(C)(=O)=O [dimethyl sulfone]
[3]
  activation of A glomerulus: strongly activated

## CCCCCCC=O [heptanal]
[2]; 10^−2 dilution
  response of H glomerulus to reference odorant: responded

## CCCCCC=O [hexanal]
[2]
  response of H glomerulus: no response

## Cc1ccc(O)cc1 [p-cresol]
[3]
  activation of A glomerulus: strongly activated

## Oc1ccccc1 [phenol]
[3]; 10^−2 dilution
  response of A glomerulus to reference odorant: responded
[3]
  activation of A glomerulus: strongly activated

## CC(=O)CCC=C(C)C [sulcatone]
[4]; at its concentration in 1× human odour
  glomerular activity in response to the compound: did not see consistent activity
[4]; higher doses (data not shown)
  glomerular activity in response to the compound: several glomeruli responded

## O=C=O [synthetic CO2, CO2]
[5]
  response of female mosquitoes in no-choice olfactometer trials: minimal

## CCCCCCCCCCC=O [undecanal]
[2]
  response of H glomerulus: strong activity
[2]; single odorant at equal vapour-phase concentration
  duration of H glomerulus activity beyond the 3-second puff: ≥ 40 s
[2]; [7]
  activity evoked in H glomerulus: strong and prolonged activity

— patent US20250151721A1, “MOSQUITO ATTRACTANT COMPOSITIONS THAT MIMIC HUMAN ODOR IN THE MOSQUITO BRAIN” (TRUSTEES OF PRINCETON UNIVERSITY, priority 2021, published 2025)
